From patent US10301304B2, “Selective inhibitor of phosphatidylinositol 3-kinase-gamma” (VERTEX PHARMACEUTICALS INCORPORATED, priority 2013, dated 2019)
Like-named read-outs stand apart in the source and are kept apart here.

What was measured:
CD40 induced colitis = CD40 induced colitis (IBD) model, body weight loss; type: in vivo, mouse
Method: The PI3Kγ inhibitor, Compound 1, was tested in a CD40 induced colitis model to determine its effect on disease course. The CD40 model of IBD is induced by injecting an anti-CD40 monoclonal antibody (agonist, i.e., activating antibody versus neutralizing antibody) into T and B cell deficient mice (Rag 1−/− mice) to induce both systemic and intestinal inflammation that leads to colitis and wasting disease via the innate immune pathway. (See, e.g., Immunity 25, 309-318, August 2006). Briefly, Rag1 knock-out mice were injected IP with the anti-CD40 monoclonal antibody FGK45. Starting on Day 0, mice were treated with PBS, vehicle or Compound 1 at 5 mg/kg b.i.d. or 10 mg/kg b.i.d. Compound 1 was administered IP for 7 days on a 10/14-hour b.i.d. dosing regimen. Compound 1 was formulated in 5% NMP/15% PEG-400/80% in a 0.5% HPMC-E50 solution in water. At study termination, serum and colon samples were collected at 2 hours following the last dose for drug concentration analysis. Body weights were measured daily during the study. Compound 1 concentrations were analyzed in the plasma samples collected 2 hours following the final dose at study termination. Concentrations were determined using a high performance liquid chromatography/tandem mass spectrometry (HPLC/MS/MS) method.

MDCK-WT = experiment: Permeability in MDCK wild-type cell line; type: in vitro ADME, canine; settings: 1 μM, A > B
Method: (§1) The permeability of Compound 1 was evaluated using both Caco-2 and MadinDarby canine kidney (MDCK) wild-type cell lines. Cells were exposed to drug in buffer on the apical side (measuring permeability in the A-to-B direction) or basolateral side (measuring permeability in the B-to-A direction) and incubated at 37° C. for one hour. Permeability was high in the A-to-B direction in both the MDCK and Caco-2 cell lines (33 and 18×10^−6 cm/sec, respectively).

[1] = Permeability in MDCK wild-type cell line; type: in vitro ADME, canine; settings: dog, MDCK-WT
Method: as §1

[2] = Oral pharmacokinetics / bioavailability; type: in vivo, Rat
Text: The bioavailability in monkey (greater than 100%) may be explained by the tenfold difference between the IV and oral doses. Compound 1 was rapidly absorbed in all species, with maximum systemic concentration observed within approximately one to three hours of dosing.

[3] = Intravenous bolus pharmacokinetics; type: in vivo; settings: single IV bolus; for AUC / AUC(0-inf) / clearance / half-life / Vd: in vivo; for Vd: read-out: Vss
Text: Following intravenous administration of a single bolus dose, Compound 1 had low systemic clearance and a long half-life in all species tested. […] The volume of distribution was greater than the total body water, indicating distribution of Compound 1 to tissues.

HUVECs = experiment: HUVEC Proliferation Assay; type: cell-based, human; settings: for IC50: Homo sapiens, HUVEC
Method: PI3Ks are important signaling molecules downstream of a number of growth factors that regulate cell survival, growth and cell cycle entry. Both PI3K-alpha and PI3K-beta isoforms regulate cell cycle entry; inhibition of either isoform leads to reduced cell growth. HUVECs are primary human umbilical vein endothelial cells which express both the PI3Kα and PI3Kβ isoforms. Inhibition of either or both PI3K-alpha or PI3K-beta isoforms will inhibit the cell growth of HUVECs. Compounds are plated onto HUVECs, cell proliferation/viability is measure 96 hours post compound treatment using cell titer-glo to measure the ATP content of the cells in the well. Lack of or reduced proliferation is a measure of the extent of PI3K-alpha and/or PI3K-beta inhibition.

[4] = system: buffy coat neutrophils and monocytes (PI3K-gamma); experiment: Isolated Leukocyte oxidative burst; type: cell-based; settings: absence of serum, read-out: IC50 Average ± Standard Deviation
Text: Neutrophils, monocytes and macrophages are key mediators of innate immunity. They release reactive oxygen species (ROS) as part of the innate immune inflammatory response. ROS production is induced by inflammatory mediators like chemokines, bacterial peptides and complement that recruit the innate immune cells to the site of inflammation. These inflammatory mediators trigger activation of PI3K-gamma and initiate a downstream signaling cascade that leads to the assembly of the complete NADPH oxidase complex at the plasma membrane generating ROS. PI3K-gamma functional activity was measured in whole blood and huffy coat neutrophils and monocytes via the generation of ROS. The cells are stimulated with TNF-alpha for 10 minutes, then with bacterial cell wall-derived chemotactic peptide, fMLP, for 20 minutes, and loaded with a non-fluorescent dye […] (DHR). ROS produced by the cells oxidizes DHR to fluorescent rhodamine causing an increase in fluorescent rhodamine content in the cells. PI3K-gamma functional activity is measured by the ability of neutrophils and monocytes to generate ROS following fMLP stimulation. Leukocytes and whole blood samples were analyzed on a BD FACSCalibur™ to quantitate cells positive for fluorescent rhodamine. Buffy coat cells generate IC50S in the absence of serum and whole blood assay generates IC50S in the presence of serum.

[5] = in vivo, Rat, single oral, 1 mg/kg nominal, spray-dried dispersion

Cc1cc(-c2cncc([C@@H](O)C(F)(F)F)c2)nc2c1C(=O)N(c1cnn(CC(F)F)c1)C2(C)C [Compound 1, (R)-6-(1-(2,2-difluoroethyl)-1H-pyrazol-4-yl)-4,7,7-trimethyl-2-(5-(2,2,2-trifluoro-1-hydroxyethyl)pyridin-3-yl)-6,7-dihydro-5H-pyrrolo[3,4-b]pyridin-5-one]
body weight loss (FIG. 4) (CD40 induced colitis; 5 mg/kg b.i.d. IP, *p<0.05 d3, **p<0.01 d4, vs vehicle): significantly inhibited
body weight loss (FIG. 4) (CD40 induced colitis; 10 mg/kg b.i.d. IP, ***p<0.001 d3-4, vs vehicle): significantly inhibited
Avg. Papp (MDCK-WT): 17.55 ×10⁻⁶ cm/s
Papp A→B at 1 h, 1 μM ([1]; MDCK, A > B): 33 ×10⁻⁶ cm/s
recovery at 1 h, 1 μM ([1]; MDCK, A > B): 90%
recovery at 1 h, 1 μM ([1]; MDCK, B > A): 93%
efflux ratio at 1 h, 1 μM [1]: 1.4
Papp B→A at 1 h, 1 μM ([1]; B > A): 23.8 ×10⁻⁶ cm/s
DN_AUCINF ([2]; Rat, single oral, 1 mg/kg nominal, spray-dried dispersion): 5140 ng·h/mL
F ([2]; Rat, single oral, 1 mg/kg nominal, spray-dried dispersion, 1 mg/kg): 84%
AUC(0-inf) [2, 5]: 5110 ng·h/mL
MRT [2, 5]: 18.3 h
Tmax [2, 5]: 3.33 h
half-life [2, 5]: 12.5 h
AUC ([2]; in vivo, Rat, single oral, 1 mg/kg nominal, spray-dried dispersion, read-out: AUCALL): 5000 ng·h/mL
Cmax ([2]; in vivo, Rat, single oral, 1 mg/kg nominal, spray-dried dispersion, read-out: Cmax): 260 ng/mL
AUC ([2]; rat, in vivo, Oral gavage, 3 mg/kg nominal dose, vehicle 0.2%MC/1%SLS, read-out: Rat PO AUC): 18000 ng·h/mL
Cmax ([2]; rat, in vivo, Oral gavage, 3 mg/kg nominal dose, vehicle 0.2%MC/1%SLS, read-out: Rat PO Cmax): 1000 ng/mL
% HBF (hepatic blood flow) ([3]; Dog, 0.5 mg/kg nominal): ~13%
DN_AUCINF ([3]; Dog, 0.5 mg/kg nominal): 4000 ng·h/mL
% HBF (hepatic blood flow) ([3]; Monkey, 0.5 mg/kg nominal): ~26%
DN_AUCINF ([3]; Monkey, 0.5 mg/kg nominal): 1500 ng·h/mL
DN_AUCINF ([3]; Mouse, 0.45 mg/kg nominal): 3400 ng·h/mL
AUC ([3]; Dog, 0.5 mg/kg nominal): 1900 ng·h/mL
AUC(0-inf) ([3]; Dog, 0.5 mg/kg nominal): 2000 ng·h/mL
clearance ([3]; Dog, 0.5 mg/kg nominal): 5.4 mL/min/kg
half-life ([3]; Dog, 0.5 mg/kg nominal): 10.7 h
Vd ([3]; Dog, 0.5 mg/kg nominal): 3.9 L/kg
AUC ([3]; Monkey, 0.5 mg/kg nominal): 700 ng·h/mL
AUC(0-inf) ([3]; Monkey, 0.5 mg/kg nominal): 740 ng·h/mL
clearance ([3]; Monkey, 0.5 mg/kg nominal): 11.5 mL/min/kg
half-life ([3]; Monkey, 0.5 mg/kg nominal): 6.6 h
Vd ([3]; Monkey, 0.5 mg/kg nominal): 3.3 L/kg
AUC ([3]; Mouse, 0.45 mg/kg nominal): 1090 ng·h/mL
AUC(0-inf) ([3]; Mouse, 0.45 mg/kg nominal): 1530 ng·h/mL
clearance ([3]; Mouse, 0.45 mg/kg nominal): 4.9 mL/min/kg
half-life ([3]; Mouse, 0.45 mg/kg nominal): 4.3 h
Vd ([3]; Mouse, 0.45 mg/kg nominal): 1.8 L/kg
selectivity over PI3K-alpha/beta (HUVECs; HUVEC proliferation): > 74 fold
IC50 (HUVECs; 96 h, HUVEC Proliferation, 96 hours, PI3K-alpha/beta dependent, read-out: IC50 Avg +/− SD): > 19 µM
IC50 (HUVECs; footnote * of Table 4, no anchor in the table, read-out: Individual assay data (IC50)): > 20 µM
selectivity over PI3K-alpha and PI3K-beta in cell based assays (HUVECs; summary): 40-80 fold
IC50 [4]: 0.22 µM
